Experimental data: ChEMBL document CHEMBL4371090, “Chemical Synthesis Study Establishes the Correct Structure of the Potent Anti-Inflammatory Agent Myrsinoic Acid F” (J Nat Prod, 2019)
Calls of active or inactive are those of the source. No cut-off for these calls is given here.

What follows are compounds tested on Mus musculus (assay: Anti-inflammatory activity in TPA-induced mouse ear edema model assessed as inhibition of ear swelling at 0.6 to 1.4 umol applied topically on ear pretreated for 0.5 hrs followed by TPA application and measured after 7 hrs).
Type: functional, organism-based

Structure (SMILES)	inhibition
CC(C)=CC/C=C(\C)C(O)Cc1cc(Br)cc(CC=C(C)C)c1O (stereo not drawn)	Active
COc1ccc2c(c1)c(CC(=O)O)c(C)n2C(=O)c1ccc(Cl)cc1	Active
CC(C)=CC/C=C(\C)C(O)Cc1cc(C(=O)O)cc(CC=C(C)C)c1O (stereo not drawn)	Active
